Data taken from publication PMC11094793, “Discovery of LLC0424 as a Potent and Selective in Vivo NSD2 PROTAC Degrader” (Journal of Medicinal Chemistry, 2024).
Where two headings read alike, the source gives them in different places.

How the values were obtained:
GSPT1 = target: T1, GSPT1 (Homo sapiens, UniProt P15170); assay: GSPT1 level by proteomics and immunoblotting; format: cell-based; conditions: 2 μM
T1 construct: endogenous in cells; host or cells: RPMI-8402, SEM, VCaP
Description: (§1) We conducted a global proteomic assay using tandem mass tags (TMT) labeled mass-spectrometry to unbiasedly quantify the protein change upon LLC0424 treatment in VCaP and RPMI-8402 cells. […] We further used SEM cell line to cross-validate the selectivity of LLC0424 for NSD2 over NSD1 and NSD3 as well as CRBN neo-substrates IKZF1, IKZF3, GSPT1, and CK-1α using immunoblotting. […] When we increased the treatment time of LLC0424 in SEM cells, we observed mild decrease of GSPT1 from 12 h (SI, Figure S3F).
NSD2 is the primary methyltransferase that transfers dimethyl to H3K36 in ALL with NSD2 gain-of-function mutation. Therefore, the effects of LLC0424 on H3K36me2 was evaluated in SEM and RPMI-8402 cells. […] Meanwhile, LLC0424 treatment also led to downregulation of H3K36Me2 in RPMI-8402 cells within 24 h (Figure 6B). […] We also conducted a colony formation assay to evaluate the effect of LLC0424 on the stem cell-like property of the leukemia cells. […] As LLC0424 leads to strong degradation of both NSD2-L and NSD2-S, the phenotypic changes upon LLC0424 treatment result from complete inactivation of NSD2 activity, including adaptor-like function of NSD2-S and SET-domain dependent enzymatic function of NSD2-L. The specific contributions of NSD2 isoforms warrant future investigation. To characterize the genes affected by LLC0424 treatment, we performed global transcriptome analysis of SEM cells treated by DMSO, LLC0424, or LLC0424N. LLC0424 treatment led to significant changes in the transcriptome of SEM cells with over 326 differentially expressed genes. […] We further explored the contribution of NSD2 loss to the phenotype we observed in SEM cells. […] Still, whether and how LLC0424’s modest effect on GSPT1 contributes to the cytotoxic effects remains to be further explored. We also designed and synthesized the negative control LLC0877 bearing the warhead that is devoid of NSD2 binding (SI, Figure S5A).
(§2) After treatment, the cultured cells were collected and rinsed with phosphate-buffered saline (PBS) in room temperature. The cells were treated with RIPA buffers (ThermoFisher Scientific) supplemented with Halt Protease and Phosphatase Inhibitor Cocktail (ThermoFisher Scientific). After sonication and centrifugation, the total amount of protein in the cell lysates was measured by Pierce Bovine Serum Albumin Standard Pre-Diluted Set (ThermoFisher Scientific). After mixed with LDS-sample buffer (Invitrogen) supplemented with Sample Reducing Agent (Invitrogen) and heated in 70 °C for 10 min, equal amount of protein was loaded into NuPAGE 4–12%, Bis-Tris Protein Gel (ThermoFisher Scientific) or NuPAGE 3–8%, Tris-Acetate Protein Gel (ThermoFisher Scientific), and blotted with primary antibodies. […]

[1] = system: CRBN neo-substrates IKZF1, IKZF3, GSPT1, and CK-1α; assay: Selectivity immunoblotting in SEM cells: CRBN neo-substrates; format: cell-based, human; conditions: 2 μM, 8 h
Description: as §1, §2

[2] = PK parameters in rats (LC/MS/MS); conditions: rat, in vivo; for MRT last: read-out: MRT (0-t)
Text: Table S4. PK parameters of LLC0424 in rats a Route/dose T1/2 Tmax Cmax AUC(0-t) CL MRT Vss F(%) […]
aDetermined using LC/MS/MS. T1/2: elimination half-life; Tmax: time for maximum concentration; Cmax: maximum concentration; AUC: the area under the curve; CL: clearance; MRT: mean residence time; Vss: volume of distribution; F: oral

T1 sequence (P15170 whole entry): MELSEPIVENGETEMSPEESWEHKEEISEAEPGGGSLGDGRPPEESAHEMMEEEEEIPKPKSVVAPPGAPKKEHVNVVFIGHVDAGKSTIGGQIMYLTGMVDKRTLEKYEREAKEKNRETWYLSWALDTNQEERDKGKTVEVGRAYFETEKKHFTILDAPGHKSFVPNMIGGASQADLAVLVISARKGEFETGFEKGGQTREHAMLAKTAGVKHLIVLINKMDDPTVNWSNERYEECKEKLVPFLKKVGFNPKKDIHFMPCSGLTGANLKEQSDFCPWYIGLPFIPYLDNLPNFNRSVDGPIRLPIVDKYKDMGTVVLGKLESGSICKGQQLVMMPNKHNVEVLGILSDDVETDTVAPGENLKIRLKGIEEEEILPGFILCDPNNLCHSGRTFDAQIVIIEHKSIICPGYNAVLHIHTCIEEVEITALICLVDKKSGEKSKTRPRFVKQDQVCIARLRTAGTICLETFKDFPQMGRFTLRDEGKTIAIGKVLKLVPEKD

GSPT1 level (GSPT1; RPMI-8402 cells, global proteomics and immunoblotting): significant decrease
GSPT1 level on longer treatment (GSPT1; SEM cells, from 12 h): mild decrease
GSPT1 degradation (GSPT1; SEM or VCaP cells, as long as 8 h): did not induce GSPT1 degradation
AUC(0-t) ([2]; iv, i.v. 2 mg/kg): 4320 ng·h/mL
Cmax ([2]; iv, i.v. 2 mg/kg): 7320 ng/mL
Tmax ([2]; iv, i.v. 2 mg/kg): 0.083 h
clearance ([2]; iv, i.v. 2 mg/kg): 7.58 mL/min/kg
half-life ([2]; iv, i.v. 2 mg/kg): 2.1 h
MRT last ([2]; iv, i.v. 2 mg/kg): 1.28 h
Vd ([2]; iv, i.v. 2 mg/kg, read-out: Vss): 0.763 L/kg
AUC(0-t) ([2]; oral 10 mg/kg): 777 ng·h/mL
Cmax ([2]; oral 10 mg/kg): 162 ng/mL
Tmax ([2]; oral 10 mg/kg): 2 h
bioavailability ([2]; oral 10 mg/kg): 3.67%
half-life ([2]; oral 10 mg/kg): 1.52 h
MRT last ([2]; oral 10 mg/kg): 3.18 h
SMILES: O=C1CCC(N2C(=O)c3ccc(N4CCC(NC(=O)c5ccc(NC(=O)c6ccc(CN(C(=O)c7ccc8c(c7)OCC(=O)N8)C7CC7)cc6)cc5)CC4)cc3C2=O)C(=O)N1 (centres unmarked) [compound 10l, N-Cyclopropyl-N-(4-((4-((1-(2-(2,6-dioxopiperidin-3-yl)-1,3-dioxoisoindolin-5-yl)piperidin-4-yl)carbamoyl)phenyl)carbamoyl)benzyl)-3-oxo-3,4-dihydro-2H-benzo[b][1,4]oxazine-7-carboxamide]
CRBN neo-substrates protein level [1]: remained unchanged
